Data: US20070128217A1 (priority 2003, published 2007)

What was measured:
[1] = test system: antibodies in sera from SARS patients (sera 1a, 1b, 2, 6, 37, 62, London, SARS-yellow, SARS-green); type: binding, human; set-up: Binding of serum 6 to linear peptides of protein X1 of SARS-CoV Urbani / Binding of serum 37 to linear peptides of protein X1 of SARS-CoV Urbani / Binding of serum 6 to looped/cyclic peptide (PEPSCAN-ELISA) / Binding of serum 37 to looped/cyclic peptide (PEPSCAN-ELISA) / Binding of serum 37 to looped/cyclic peptides of protein X1 of SARS-CoV Urbani / Binding of serum 6 to linear peptides of protein X2 / Binding of serum 37 to linear peptides of protein X2 / Binding of serum 37 to looped/cyclic peptides of protein X2 of SARS-CoV Urbani / Binding of serum 6 to linear peptides of protein M of SARS-CoV Urbani / Binding of serum 37 to linear peptides of protein M of SARS-CoV Urbani / Binding of serum 6 to looped/cyclic peptides of protein M of SARS-CoV Urbani / Binding of serum 37 to looped/cyclic peptides of protein M of SARS-CoV Urbani / Binding of serum 6 to linear peptides of protein X3 of SARS-CoV Urbani / Binding of serum 37 to linear peptides of protein X3 of SARS-CoV Urbani / Binding of serum 37 to looped/cyclic peptides of protein X3 of SARS-CoV Urbani / Binding of serum 6 to linear peptides of protein X4 of SARS-CoV Urbani / Binding of serum 37 to linear peptides of protein X4 of SARS-CoV Urbani / Binding of serum 37 to looped/cyclic peptides of protein X4 of SARS-CoV Urbani / Binding of serum 6 to linear peptides of protein X5 of SARS-CoV Urbani / Binding of serum 37 to linear peptides of protein X5 of SARS-CoV Urbani / Binding of serum 37 to looped/cyclic peptides of protein X5 of SARS-CoV Urbani / Binding of serum 6 to linear peptides of protein N of SARS-CoV Urbani / Binding of serum 37 to linear peptides of protein N of SARS-CoV Urbani / Binding of serum 6 to linear peptide (PEPSCAN-ELISA) / Binding of serum 1a to looped/cyclic peptides of protein N of SARS-CoV Urbani / Binding of serum 1b to looped/cyclic peptides of protein N of SARS-CoV Urbani / Binding of serum 2 to looped/cyclic peptides of protein N of SARS-CoV Urbani / Binding of serum 6 to looped/cyclic peptides of protein N of SARS-CoV Urbani / Binding of serum 37 to looped/cyclic peptides of protein N of SARS-CoV Urbani / Binding of serum 62 to looped/cyclic peptides of protein N of SARS-CoV Urbani / Binding of serum London to looped/cyclic peptides of protein N of SARS-CoV Urbani / Binding of serum SARS-green to looped/cyclic peptides of protein N of SARS-CoV Urbani: unit not given here
[2] = test system: rabbit serum obtained by immunizing a rabbit with the SARS-CoV strain Frankfurt 1; type: binding; set-up: Binding of a rabbit serum to linear peptides / Binding of a rabbit serum to looped peptides / Rabbit serum linear peptides / Rabbit serum looped peptides / Binding of a rabbit serum to linear peptides of protein N of SARS-CoV Urbani (Rabbit serum linear peptides) / Binding of a rabbit serum to looped/cyclic peptides of protein N of SARS-CoV Urbani (Rabbit serum looped peptides): unit not given here
[3] = test system: control sera (pooled serum of ten healthy LUMC hospital workers; commercial negative donor pooled serum from the Dutch bloodbank); type: binding, human; set-up: Binding of Control serum LUMC to linear peptides / Binding of Control serum Blood-bank to linear peptides / Binding of Control serum LUMC to looped peptides / Binding of Control Serum Blood-Bank to Looped peptides / Binding of Control serum LUMC to linear peptides of the protein M of SARS-CoV Urbani / Binding of Control serum Blood-bank to linear peptides of the protein M of SARS-CoV Urbani / Binding of Control serum LUMC to looped peptides of the protein M of SARS-CoV Urbani / Binding of Control Serum Blood-Bank to Looped peptides of the protein M of SARS-CoV Urbani: unit not given here

STAWLCALGKVLPFH
Binding of serum 1a to linear peptides of protein X5 of SARS-CoV Urbani [1]: 0.8 | Binding of serum 1a to looped/cyclic peptides of protein X5 of SARS-CoV Urbani [1]: 0.6 | Binding of serum 1b to linear peptides of protein X5 of SARS-CoV Urbani [1]: 0.6 | Binding of serum 1b to looped/cyclic peptides of protein X5 of SARS-CoV Urbani [1]: 0.4 | Binding of serum 2 to linear peptides of protein X5 of SARS-CoV Urbani [1]: 0.6 | Binding of serum 2 to looped/cyclic peptides of protein X5 of SARS-CoV Urbani [1]: 0.6 | Binding of serum 6 to linear peptides of protein X5 of SARS-CoV Urbani [1]: 0.7 | Binding of serum 6 to looped/cyclic peptides of protein X5 of SARS-CoV Urbani [1]: 0.5 | Binding of serum 37 to linear peptides of protein X5 of SARS-CoV Urbani [1]: 0.7 | Binding of serum 37 to looped/cyclic peptides of protein X5 of SARS-CoV Urbani [1]: 0.4 | Binding of serum 62 to linear peptides of protein X5 of SARS-CoV Urbani [1]: 0.8 | Binding of serum 62 to looped/cyclic peptides of protein X5 of SARS-CoV Urbani [1]: 0.7 | Binding of serum London to linear peptides of protein X5 of SARS-CoV Urbani [1]: 0.7 | Binding of serum London to looped/cyclic peptides of protein X5 of SARS-CoV Urbani [1]: 0.2 | Binding of serum SARS-green to linear peptides of protein X5 of SARS-CoV Urbani [1]: 0.6 | Binding of serum SARS-green to looped/cyclic peptides of protein X5 of SARS-CoV Urbani [1]: 0.3 | Binding of serum SARS-yellow to linear peptides of protein X5 of SARS-CoV Urbani [1]: 0.3 | Binding of serum SARS-yellow to looped/cyclic peptides of protein X5 of SARS-CoV Urbani [1]: 1.0 | Rabbit serum linear peptides [2]: 0.5 | Rabbit serum looped peptides [2]: 0.7 | Binding of Control Serum Blood-Bank to Looped peptides [3]: 0.5 | Binding of Control serum Blood-bank to linear peptides [3]: 0.9 | Binding of Control serum LUMC to linear peptides [3]: 0.6 | Binding of Control serum LUMC to looped peptides [3]: 0.6

QQWIQFMMSRRRLLA
Binding of serum 1a to linear peptides of protein X2 [1]: 0.6 | Binding of serum 1a to looped/cyclic peptides of protein X2 of SARS-CoV Urbani [1]: 0.6 | Binding of serum 1b to linear peptides of protein X2 [1]: 0.4 | Binding of serum 1b to looped/cyclic peptides of protein X2 of SARS-CoV Urbani [1]: 0.5 | Binding of serum 2 to linear peptides of protein X2 [1]: 0.4 | Binding of serum 2 to looped/cyclic peptides of protein X2 of SARS-CoV Urbani [1]: 0.6 | Binding of serum 6 to linear peptides of protein X2 [1]: 0.8 | Binding of serum 6 to looped/cyclic peptides of protein X2 of SARS-CoV Urbani [1]: 0.4 | Binding of serum 37 to linear peptides of protein X2 [1]: 0.6 | Binding of serum 37 to looped/cyclic peptides of protein X2 of SARS-CoV Urbani [1]: 0.6 | Binding of serum 62 to linear peptides of protein X2 [1]: 0.6 | Binding of serum 62 to looped/cyclic peptides of protein X2 of SARS-CoV Urbani [1]: 0.8 | Binding of serum London to linear peptides of protein X2 [1]: 0.5 | Binding of serum London to looped/cyclic peptides of protein X2 of SARS-CoV Urbani [1]: 0.3 | Binding of serum SARS-green to linear peptides of protein X2 [1]: 0.6 | Binding of serum SARS-green to looped/cyclic peptides of protein X2 of SARS-CoV Urbani [1]: 0.5 | Binding of serum SARS-yellow to linear peptides of protein X2 [1]: 0.6 | Binding of serum SARS-yellow to looped/cyclic peptides of protein X2 of SARS-CoV Urbani [1]: 0.4 | Binding of a rabbit serum to linear peptides [2]: 0.8 | Binding of a rabbit serum to looped peptides [2]: 1.5 | Binding of Control Serum Blood-Bank to Looped peptides [3]: 0.7 | Binding of Control serum Blood-bank to linear peptides [3]: 0.8 | Binding of Control serum LUMC to linear peptides [3]: 0.6 | Binding of Control serum LUMC to looped peptides [3]: 0.5

LYIIKLVFLWLLWPV
Binding of serum 1a to linear peptides of protein M of SARS-CoV Urbani [1]: 0.8 | Binding of serum 1a to looped/cyclic peptides of protein M of SARS-CoV Urbani [1]: 0.6 | Binding of serum 1b to linear peptides of protein M of SARS-CoV Urbani [1]: 0.6 | Binding of serum 1b to looped/cyclic peptides of protein M of SARS-CoV Urbani [1]: 0.5 | Binding of serum 2 to linear peptides of protein M of SARS-CoV Urbani [1]: 0.6 | Binding of serum 2 to looped/cyclic peptides of protein M of SARS-CoV Urbani [1]: 0.5 | Binding of serum 6 to linear peptides of protein M of SARS-CoV Urbani [1]: 0.4 | Binding of serum 6 to looped/cyclic peptides of protein M of SARS-CoV Urbani [1]: 0.7 | Binding of serum 37 to linear peptides of protein M of SARS-CoV Urbani [1]: 0.4 | Binding of serum 37 to looped/cyclic peptides of protein M of SARS-CoV Urbani [1]: 0.6 | Binding of serum 62 to linear peptides of protein M of SARS-CoV Urbani [1]: 0.4 | Binding of serum 62 to looped/cyclic peptides of protein M of SARS-CoV Urbani [1]: 0.6 | Binding of serum London to linear peptides of protein M of SARS-CoV Urbani [1]: 0.3 | Binding of serum London to looped/cyclic peptides of protein M of SARS-CoV Urbani [1]: 0.2 | Binding of serum SARS-green to linear peptides of protein M of SARS-CoV Urbani [1]: 0.5 | Binding of serum SARS-green to looped/cyclic peptides of protein M of SARS-CoV Urbani [1]: 0.3 | Binding of serum SARS-yellow to linear peptides of protein M of SARS-CoV Urbani [1]: 0.2 | Binding of serum SARS-yellow to looped/cyclic peptides of protein M of SARS-CoV Urbani [1]: 0.3 | Rabbit serum linear peptides [2]: 0.1 | Rabbit serum looped peptides [2]: 0.3 | Binding of Control Serum Blood-Bank to Looped peptides of the protein M of SARS-CoV Urbani [3]: 0.7 | Binding of Control serum Blood-bank to linear peptides of the protein M of SARS-CoV Urbani [3]: 0.7 | Binding of Control serum LUMC to linear peptides of the protein M of SARS-CoV Urbani [3]: 0.7 | Binding of Control serum LUMC to looped peptides of the protein M of SARS-CoV Urbani [3]: 0.6

LQTLVLKMLHSSSLT
Binding of serum 1a to linear peptides of protein X2 [1]: 0.7 | Binding of serum 1a to looped/cyclic peptides of protein X2 of SARS-CoV Urbani [1]: 0.4 | Binding of serum 1b to linear peptides of protein X2 [1]: 0.5 | Binding of serum 1b to looped/cyclic peptides of protein X2 of SARS-CoV Urbani [1]: 0.4 | Binding of serum 2 to linear peptides of protein X2 [1]: 0.5 | Binding of serum 2 to looped/cyclic peptides of protein X2 of SARS-CoV Urbani [1]: 0.3 | Binding of serum 6 to linear peptides of protein X2 [1]: 0.4 | Binding of serum 6 to looped/cyclic peptides of protein X2 of SARS-CoV Urbani [1]: 0.5 | Binding of serum 37 to linear peptides of protein X2 [1]: 0.6 | Binding of serum 37 to looped/cyclic peptides of protein X2 of SARS-CoV Urbani [1]: 0.3 | Binding of serum 62 to linear peptides of protein X2 [1]: 0.6 | Binding of serum 62 to looped/cyclic peptides of protein X2 of SARS-CoV Urbani [1]: 0.4 | Binding of serum London to linear peptides of protein X2 [1]: 0.4 | Binding of serum London to looped/cyclic peptides of protein X2 of SARS-CoV Urbani [1]: 0.5 | Binding of serum SARS-green to linear peptides of protein X2 [1]: 0.5 | Binding of serum SARS-green to looped/cyclic peptides of protein X2 of SARS-CoV Urbani [1]: 0.3 | Binding of serum SARS-yellow to linear peptides of protein X2 [1]: 0.7 | Binding of serum SARS-yellow to looped/cyclic peptides of protein X2 of SARS-CoV Urbani [1]: 0.3 | Binding of a rabbit serum to linear peptides [2]: 0.3 | Binding of a rabbit serum to looped peptides [2]: 0.3 | Binding of Control Serum Blood-Bank to Looped peptides [3]: 0.5 | Binding of Control serum Blood-bank to linear peptides [3]: 0.7 | Binding of Control serum LUMC to linear peptides [3]: 0.5 | Binding of Control serum LUMC to looped peptides [3]: 0.5

YQLRARSVSPKLFIR
Binding of serum 1a to linear peptides of protein X4 of SARS-CoV Urbani [1]: 0.7 | Binding of serum 1a to looped/cyclic peptides of protein X4 of SARS-CoV Urbani [1]: 0.7 | Binding of serum 1b to linear peptides of protein X4 of SARS-CoV Urbani [1]: 0.6 | Binding of serum 1b to looped/cyclic peptides of protein X4 of SARS-CoV Urbani [1]: 0.4 | Binding of serum 2 to linear peptides of protein X4 of SARS-CoV Urbani [1]: 0.6 | Binding of serum 2 to looped/cyclic peptides of protein X4 of SARS-CoV Urbani [1]: 0.6 | Binding of serum 6 to linear peptides of protein X4 of SARS-CoV Urbani [1]: 0.7 | Binding of serum 6 to looped/cyclic peptides of protein X4 of SARS-CoV Urbani [1]: 1.2 | Binding of serum 37 to linear peptides of protein X4 of SARS-CoV Urbani [1]: 0.8 | Binding of serum 37 to looped/cyclic peptides of protein X4 of SARS-CoV Urbani [1]: 0.7 | Binding of serum 62 to linear peptides of protein X4 of SARS-CoV Urbani [1]: 0.7 | Binding of serum 62 to looped/cyclic peptides of protein X4 of SARS-CoV Urbani [1]: 0.6 | Binding of serum London to linear peptides of protein X4 of SARS-CoV Urbani [1]: 0.8 | Binding of serum London to looped/cyclic peptides of protein X4 of SARS-CoV Urbani [1]: 1.4 | Binding of serum SARS-green to linear peptides of protein X4 of SARS-CoV Urbani [1]: 0.7 | Binding of serum SARS-green to looped/cyclic peptides of protein X4 of SARS-CoV Urbani [1]: 0.4 | Binding of serum SARS-yellow to linear peptides of protein X4 of SARS-CoV Urbani [1]: 0.6 | Binding of serum SARS-yellow to looped/cyclic peptides of protein X4 of SARS-CoV Urbani [1]: 0.9 | Recognition of the peptide by the rabbit serum [2]: recognized | Binding of Control Serum Blood-Bank to Looped peptides [3]: 0.7 | Binding of Control serum Blood-bank to linear peptides [3]: 0.6 | Binding of Control serum LUMC to linear peptides [3]: 0.6 | Binding of Control serum LUMC to looped peptides [3]: 0.7
